From publication PMC10970558 (International Journal of Molecular Sciences, 2024)
“And” between values parts separate entries of the source, which are not always exact repeats. Identical values can stand only once. Like-named read-outs stand apart in the source and are kept apart here.

Key:
[1] = Neutral red (NR) cytotoxicity assay; type: cell-based, human; conditions: human, HaCaT immortalized keratinocytes, 50 µM, 24 h, NR assay
Procedure: (§1) After 24 h exposure to drugs, assay was performed as described.

BJ normal fibroblasts [2] = experiment: Neutral red (NR) cytotoxicity assay; type: cell-based, human; conditions: for IC50: 24 h treatment, AAT Bioquest IC50 calculator
Procedure: as §1

[3] = tested on: HaCaT immortalized keratinocytes; experiment: Neutral red (NR) cytotoxicity assay; type: cell-based, human; conditions: for IC50: 24 h treatment, NR assay, AAT Bioquest IC50 calculator
Procedure: as §1

BJ normal fibroblasts [4] = experiment: Caspase 3/7 activity (apoptosis); type: cell-based, human; conditions: 24 h
Procedure: (§2) As an apoptosis marker, Caspase 3/7 activity was measured with Apo-ONE® Homogenous Caspase-3/7 Assay (Promega). The fluorescence as determinant of caspase-3/7 activity was read at 485/535 nm using Tecan Infinite M200 PRO Multimode Microplate Reader (TECAN Group Ltd., Männedorf, Switzerland) and results were adjusted relatively to the number of cells per well (the number of cells was determined by fluorescence measurement after DAPI staining).

[5] = tested on: HaCaT immortalized keratinocytes; experiment: Caspase 3/7 activity (apoptosis); type: cell-based, human; conditions: 24 h
Procedure: as §2

BJ normal fibroblasts [6] = experiment: Intracellular ATP level (CellTiter-Glo); type: cell-based, human; conditions: 24 h
Procedure: (§3) Intracellular level of ATP was estimated with commercially available bioluminescent CellTiter-Glo® Assay kit from Promega, which was prepared according to manufacturer’s protocol and added to cells (100 μL/well). After 10 min incubation at RT the luminescence was measured using the Infinite M200 PRO Multimode Microplate Reader (TECAN Group Ltd., Männedorf, Switzerland) against blank (wells with the CellTiter-Glo® reagent only). The luminescence signal was proportional to ATP level. At the same time a parallel assay was performed, and cells were labeled with […] DAPI (as described above in proliferation assay). Using calibration curve, the DAPI fluorescence signal was used to estimate the number of cells in each well and to calculate luminescence signal intensity from ATP per one cell. The results were expressed as % of the control (non-treated cells).

[7] = tested on: HaCaT immortalized keratinocytes; experiment: Intracellular ATP level (CellTiter-Glo); type: cell-based, human; conditions: 24 h
Procedure: as §3

BJ normal fibroblasts [8] = experiment: Migration (scratch) assay; type: cell-based, human; conditions: 12 h
Procedure: (§4) Cells were seeded in 24-well plates at 1.5 × 10^5 cells/well in 600 µL culture medium and incubated at 37 °C for 24 h to obtain full confluence. Afterwards, cells were scraped with a sterile 200 µL pipette tips and debris was removed. […] Medium with lowered 2% FBS was used to inhibit cell division. […] Assay was performed as described. The results were expressed as % of scraped area closure estimated as ratio of area measured before and after treatment with drugs.

[9] = tested on: HaCaT immortalized keratinocytes; experiment: Migration (scratch) assay; type: cell-based, human
Procedure: as §4

[10] = In vivo toxicity, C. elegans survival; conditions: N2, Caenorhabditis elegans, in vivo, other: exposure in complete S medium in 96-well plate, 7 days incubation, read-out: viability (living individuals)
Procedure: (§5) Nematodes wild-type culture (strain N2) was maintained at 20 °C on NGM agar plates with bacteria Escherichia coli OP50 as food source. C. elegans culture was synchronized by treatment with hypochlorite. Obtained eggs were left in M9 buffer at room temperature to hatch until the following day. The next day L1 worms were placed on NGM plates with E. coli OP50 and left at 20 °C until reaching L4 stage (approximately 44 h). L4 worms were transferred to 15 mL falcons by washing NGM plates twice with 5 mL water and centrifuged at 1500 rpm for 3–4 min. Then supernatant was aspirated. Pellet was re-suspended with 5 mL of complete S medium followed by centrifugation. Subsequently the density of nematodes suspension was assessed according to Scanlan et al.. Worms were suspended in complete S medium with E. coli OP50 (1:1000), 0.08% cholesterol (5 mg/mL in Et-OH), 1% penicillin-streptomycin, 1% nystatin, and 100 mM FUdR (at final concentration 200 µM) to obtain 20 nematodes in 50 μL. FUdR was added to sterilize nematodes. After that worms were transferred to 96-well plate. The working solutions of tested drugs were prepared in the complete S medium with 0.1% DMSO and placed into a 96-well plate with previously seeded worms. Then, worms were incubated at 21 °C for 7 days. Live (moving and curling) and dead nematodes were counted every day with an inverted microscope with contrast phase (Delta Optical IB-100). Images of treated C. elegans were also collected. The assay was performed in triplicates in three independent experiments.
(§6) To analyze differences in nematode viability incubated with the respective concentrations of the compounds, the Kaplan–Meier estimator was used. Statistically significant differences between the control and treated groups were determined with Gehan’s Wilcoxon test. Statistically significant differences in body size between the control and treated groups were determined using a Kruskal–Wallis. p < 0.05 was considered statistically significant. All analyses and calculations were performed using Statistica 13.3 software (StatSoft, Cracow, Poland).

C. elegans [11] = experiment: In vivo toxicity, C. elegans survival; conditions: for concentration at which toxic: 7 days incubation, tested 25–400 µM; for effect on the entire nematode organism: up to 100 µM, up to 4th day of incubation
Procedure: as §5, §6

C. elegans [12] = experiment: In vivo toxicity, C. elegans body length; set-up: species or system Caenorhabditis elegans
Procedure: as §5, §6

glioma stem cells GSC = tested on: glioma stem cells GSC; set-up: method as in PMID 18509487; conditions: mouse model of malignant glioma; cited from earlier work
A172 glioma cells = tested on: A172 glioma cells; set-up: method as in PMID 37574500; conditions: A172, 24 h incubation; cited from earlier work
U87 glioma = tested on: U87 glioma; set-up: method as in PMID 33941107; conditions: cited from earlier work
BJ normal fibroblasts [13] = experiment: Proliferation assay (DAPI, 72 h); type: cell-based, human
Procedure: Cells were seeded into 96-well, clear microplates at density 4 × 10^3 cells/well and incubated 24 h at 37 °C to attach. […] DMSO concentration was adjusted to 0.1% in all samples. The plates were placed for 72 h in incubator. Then, cells were washed with PBS and fixed in 3.7% formaldehyde solution in PBS for 15 min at RT, again washed with PBS and nuclei were staining with 600 nM DAPI solution in PBS (100 µL/well, 1 h). The fluorescent signal, proportional to the number of cells, was measured in Tecan Infinite M200 PRO Mulitmode Microplate Reader (TECAN Group Ltd., Männedorf, Switzerland) at 360 nm/460 nm. The results were expressed as % of the 0.1% DMSO treated control.

PPARγ in BJ cells = experiment: PPARγ level, Western blot; type: cell-based, human; conditions: non-toxic concentration (12.5 µM), 24 h
PPARγ = molecular target: PPARγ; set-up: method as in PMID 11684010; conditions: cited from earlier work

Cc1ccc(-c2cc(C(F)(F)F)nn2-c2ccc(S(N)(=O)=O)cc2)cc1 [CXB, celecoxib]
viability at 24 h, 50 µM [1]: ~65% | IC50 (BJ normal fibroblasts [2]; Homo sapiens, Fibroblast): 77.6 µM | IC50 ([3]; Homo sapiens, read-out: IC50): 59.5 µM | concentration from which caspase 3/7 activity increased / apoptosis induced (BJ normal fibroblasts [4]): ≥ 50 µM | concentration from which caspase 3/7 activity increased / apoptosis induced [5]: ≥ 50 µM | concentration at which intracellular ATP level increased (BJ normal fibroblasts [6]): 25 µM | concentration at which intracellular ATP level increased [7]: 25 µM and 50 µM | concentration from which migration was reduced (BJ normal fibroblasts [8]): ≥ 50 µM | concentration from which migration was reduced ([9]; 24 h): ≥ 50 µM | viability at 7 days, 200 µM ([10]; 200 µM): 60% | viability at 7 days, 400 µM ([10]; 400 µM): 73% | concentration at which lifespan was significantly shortened (C. elegans [11]; 7-day treatment): 25 to 400 µM | concentration at which toxic (C. elegans [11]): 25 µM | effect on the entire nematode organism (C. elegans [11]): no significant effect | reduction of body length (C. elegans [12]; 200 µM, 7 days): 25% | concentration at which body length was significantly shortened (C. elegans [12]; 7-day treatment): 50 to 400 µM | body length versus control group (C. elegans [12]; 50 and 400 µM, 7 days): more than twice as short | IC50 (glioma stem cells GSC): 60 µM | concentration from which cells were significantly destroyed via apoptosis (A172 glioma cells): ≥ 25 µM

CC1(COc2ccc(CC3SC(=O)NC3=O)cc2)CCCCC1 (centres unmarked) [Ciglitazone]
concentration inhibiting growth of U87 glioma tumors, colony formation and migration (U87 glioma): 20 µM

CC(C)C[C@H](NC(=O)OCC1c2ccccc2-c2ccccc21)C(=O)O [FL, Fmoc-L-Leucine]
viability (BJ normal fibroblasts [2]; 100 µM, 24 h): about 70% | IC50 (BJ normal fibroblasts [2]): 400 µM | IC50 [3]: ≫ | sensitivity of cells ([3]; up to the highest (100 µM) concentration): not sensitive | concentration at which cell division was inhibited (BJ normal fibroblasts [13]): 100 µM | concentration from which caspase 3/7 activity increased / apoptosis induced (BJ normal fibroblasts [4]): ≥ 50 µM | change of caspase 3/7 activity level [5]: reduced | concentration at which intracellular ATP level decreased (BJ normal fibroblasts [6]): 100 µM | concentration at which intracellular ATP level increased [7]: 100 µM | concentration from which migration was reduced (BJ normal fibroblasts [8]): ≥ 50 µM | effect on migration ([9]; entire range of concentrations used (25–100 µM)): did not affect | increase of PPARγ level (PPARγ in BJ cells): 55% and 50% | concentration at which toxic (C. elegans [11]): 400 µM | effect on the entire nematode organism (C. elegans [11]): no significant effect | change in nematode body length (C. elegans [12]; 7 days): did not significantly affect | Ki (PPARγ): 15 µM

COC(=O)Nc1nc2ccc(C(=O)c3ccccc3)cc2[nH]1 [mebendazole]
IC50 (C. elegans [11]; Caenorhabditis elegans, data from our studies): 4 µM

Cc1c(C)c2c(c(C)c1O)CCC(C)(COc1ccc(CC3SC(=O)NC3=O)cc1)O2 (centres unmarked) [troglitazone]
concentration inhibiting growth of U87 glioma tumors, colony formation and migration (U87 glioma): 20 µM
